We go through one molecule from patent publication US8834843B2, “Imaging method” (GE Healthcare Limited, priority 2007, dated 2014).

In one test the target is EA-Hy926 membranes. Kind of test: Competitive binding assay with 125I-echistatin on EA-Hy926 membranes. More on the design: species or system human. As to conditions: cold compound vs 125I-echistatin, 1 hour at 37° C.; read-out: Ki in the EA-Hy926 membrane assay. As to the method:
The inhibition constant of Compound 6 was measured using a previously-described membrane binding assay (Indrevoll et al, Bioorg & Med Chem Lett, 2006, 16, 6190-6193).
In brief, membranes from the human endothelial adenocarcinoma cell line EA-Hy926 were prepared and the Kd calculated for the purified membrane fraction. A competitive binding assay was then established to measure inhibition constants for cold Compound 6. ^125I-echistatin was used as the labelled ligand and cold echistatin as a reference standard.
A total of sixteen dilutions of cold test compound (either cold echistatin or cold Compound 6) were prepared and mixed with a combination of ^125I-echistatin and membrane prior to incubation for 1 hour at 37° C. Following several washes, the bound material was harvested on a filter using a Skatron micro harvester. The filterspots were finally excised and counted in a Packard γ-counter.
The inhibition constants for Compound 3 and Compound 8 were determined using the method described in Example 1. FIG. 3 illustrates binding of ^125I-echistatin versus cold Compound 3, Compound 8 and echistatin on EA-Hy926 membranes.

The test system of test [1] is fibrogenic livers in BDL model. Kind of test: Liver uptake in BDL vs sham rats at 15 days post-op, vs negative control. The conditions noted are these: one hour post-injection. Type of test: in vivo, rat. As to the method: On the appropriate day post surgery BDL and sham animals were removed and put under isoflurane anaesthesia, then each animal was injected with 0.3 ml intravenously (i.v.) via tail vein (˜3MBq). At the appropriate time point post-injection of the test item, each animal was re-anaesthetised with isoflurane, sacrificed by cervical dislocation weighed and the weight recorded via a barcode scanning system. Each animal was dissected and the following organs and tissues were removed and counted using BASIL counter protocol 40 or manual counting:
The BDL and sham animal models were set up as described in Example 3. At 15 days post-operatively, one of Compound 3, Compound 8 or a negative control was administered to each animal and liver uptake assessed as described in Example 3.

For test [2], the system named is fibrogenic livers in rat BDL model. The experiment in a line: Liver uptake (SUV) in BDL vs sham rats at 2-28 days post-operatively. The format is in vivo. As to conditions: 1 hour after tail vein injection. The protocol:
Outbred male Sprague Dawley rats (180-200 g; Charles River) were used in all bile duct ligation (BDL) and sham studies. […] For the BDL animals, the abdomen was shaved and swabbed with betadine solution followed by 5 mg/kg carprofen subcutaneously (s.c.) and 5 mg/kg bupronorphine s.c. and under Isoflurane anaesthesia a mid-line laparotomy was performed and the common bile duct located. Bile duct was double ligated, the first ligation made between the junction of the hepatic ducts and the second above the entrance of the pancreatic ducts. […] Animals were closely monitored for the duration of the experiment. […] At the appropriate time point post-injection of the test item, each animal was re-anaesthetised with isoflurane, sacrificed by cervical dislocation weighed and the weight recorded via a barcode scanning system. Each animal was dissected and the following organs and tissues were removed and counted using BASIL counter protocol 40 or manual counting: The BDL and sham animal models were set up as described in Example 3. Uptake of Compound 8 was calculated as Standard Uptake Value (SUV) as follows: [formula] • Zs=counts per second in sample • Ws=weight of sample in grams • Z1=total counts per second measured in all the samples (excluding the injection site) • W1=weight of animal in grams […]

In test [3] the test system is Integrins on Stellate Cell Membranes. The experiment in a line: Binding to integrins on stellate cell membranes (125I-echistatin competition). More on the design: species or system rat. As to conditions: cold compound vs 125I-echistatin, 37° C. for 60 min; read-out: Ki in the activated stellate cell membrane assay. The protocol:
An activated rat liver stellate cell line (immortalized) was a kind gift from Professor Trond Berg at University of Oslo. The cells were grown in 150 mm culture flasks to confluence in Dulbeccos modified Eagels medium containing 10% FBS, glutamine and Penicillin/Streptomycin.
The cells were washed twice in ice cold PBS, pH 7.4, added 10 ml PBS and scraped off with a rubber policeman and transferred to a 50 ml vial on ice. Another 10 ml PBS were added to the flasks, scraped and combined with the first cells. The cells were centrifuged at 2000 rpm at 4° C. for 10 min. The supernatant was poured off and the pellet resuspended in 3 ml PBS. All pellets were combined into one tube, centrifuged as above and the final pellet frozen at −70° C. immediately.
The cell pellets were resuspended in ice-cold homogenization buffer (10 times the amount of cells, for example 2 g pellet to 20 ml homogenization buffer) containing 50 mM Tris-HCl, 5 mM MgCl2, 1 mM EGTA, pH7.4 and in addition protease inhibitors 10 ug/ml leupeptin, 10 ug/ml pepstatin, 200 ug/ml Bacitracin, 0.5 ug/ml aprotinin and 100 uM PMSF. […]
An experiment was set up in a 96-well plate. […] This filterspot was cut off and added a tube that finally was counted in a gamma-counter. […]

Entries after “also recorded” stand apart in the source; their conditions may differ. Numbered stars: 1 amine (or outer) side, 2 acyl side, 3 side chain; on linkers, the order of the positions; unused ones are H or OH. Bridge positions count the residues as written; N and C are the ends. Side chains are listed from the residue outwards. Peptide text beside a SMILES is read from it. * marks the point of attachment. X1 = C/C(=N\O)C(C)(C)NCCC(CCNC(C)(C)/C(C)=N/O)CCN*; Glutaryl = O=C(CCCC(=O)[*:2])[*:1]; X2 = NC(=O)COCC(=O)NCCOCCOCCOCCN*

Regarding `C/C(=N\O)C(C)(C)NCCC(CCNC(=O)CCCC(=O)NCCCC[C@@H]1NC(=O)CSC[C@@H](C(=O)NCCOCCOCCOCCNC(=O)COCC(N)=O)NC(=O)[C@H](Cc2ccccc2)NC(=O)[C@@H]2CSSC[C@H](NC1=O)C(=O)N[C@@H](CCCNC(=N)N)C(=O)NCC(=O)N[C@@H](CC(=O)O)C(=O)N2)CCNC(C)(C)/C(C)=N/O` (stereo partly shown) [Compound 8] ({CH2CO}-K([Glutaryl-X1])CRGDCFC-X2; disulfide 2-6; thioether N-8), the figures for the inhibition constant Ki (on EA-Hy926 membranes; in test [3]) were 6 nM and 56 nM, respectively. In test [1], the “Liver retention/uptake in BDL compared to sham animals (in words)” value was “significantly higher liver uptake; also recorded: significantly retained”. For the same molecule, the “Liver uptake in BDL rats (in words)” value in test [2] is listed as “specific uptake”.
